In patent US20250188079A1, “INHIBITING CYCLIC AMP-RESPONSIVE ELEMENT-BINDING PROTEIN (CREB)” (Forma Therapeutics, Inc., priority 2019, published 2025):

target: CBP (Homo sapiens (Human), UniProt Q92793); assay: HTRF biochemical assay for CBP activity (TR-FRET, bromodomain); assay type: binding; conditions: geometric mean, 10-point 3-fold dilution 33 μM to 1.7 nM, read-out: BROMO IC50 TRF TB CBP (μM gmean)
Experimental: Example 1: HTRF Biochemical Assay for CBP Activity
The assay was performed in a final volume of 6 μL in assay buffer containing 50 mM Hepes (pH 7.5, (0.5M Hepes, pH 7.5 solution; Teknova H1575)), 0.5 mM GSH, 0.01% BGG (0.22 p M filtered, Sigma, G7516-25G), 0.005% BSA (0.22 μM filtered, EMD Millipore Corporation, 126575) and 0.01% Triton X-100 (Sigma, T9284-10L). Nanoliter quantities of 10-point, 3-fold serial dilution in DMSO were pre-dispensed into 1536 assay plates (Corning, #3724BC) for a final test concentration of 33 μM to 1.7 nM, top to lowest dose, respectively. 3 μL of 2×Protein and 3 μL of 2×Peptide Ligand were added to assay plates (pre-stamped with compound). Plates were incubated for varying times at room temperature prior to measuring the signal. TR-FRET (Time-Resolved Fluorescence Resonance Energy Transfer) was measured on the PHERAstar (BMG, equipped with HTRF optic module [337/520/490]) or on the Envision (PerkinElmer, equipped with the TRF Laser unit, TRF dual mirror D400/D505 and emission filters M520 and M495). Data were reported as percent inhibition compared with control wells based on the following equation: % inh=1−((TR-FRET ratio−AveLow)/(AveHigh−AveLow)) where TR-FRET ratio=(Fluorescence at 520 nm/Fluorescence at 490 nm)*10000), AveLow=average TR-FRET ratio of no enzyme control (n=32), and AveHigh=average TR-FRET ratio of DMSO control (n=32). IC50 values were determined by curve fitting of the standard 4 parameter logistic fitting algorithm included in the Activity Base software package: IDBS XE Designer Model205. Data is fitted using the Levenburg Marquardt algorithm. As set forth in Table 2 below, an IC50 value of greater than or equal to 0.001 μM and less than or equal to 0.01 μM is marked “++++”; a value greater than 0.01 μM and less than or equal to 0.1 μM is marked “+++”; a value greater than 0.1 μM and less than or equal to 1 μM is marked “++”; and a value greater than 1 μM and less than 1000 μM is marked “+.” Compounds that were not tested in a particular assay are marked “NT.”

Sequence of CBP (Q92793 1085-1192): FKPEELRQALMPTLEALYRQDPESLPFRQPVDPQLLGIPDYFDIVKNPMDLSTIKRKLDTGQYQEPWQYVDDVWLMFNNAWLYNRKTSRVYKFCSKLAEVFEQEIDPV

Molecule	IC50
COC(=O)N1CCc2ccc3c(nc([C@H]4CC[C@H](C(=O)O)CC4)n3[C@H](C)Cc3ccc(C)c(F)c3)c2C1 (single isomer, unassigned) [Compound 283]	0.01 to 0.1 µM
COC(=O)N1CCc2ccc3c(nc([C@H]4CC[C@](C)(C(=O)O)CC4)n3[C@@H](CO)Cc3ccccc3)c2C1 [Compound 270]	0.01 to 0.1 µM
COC(=O)N1CCc2c([C@H]3CCOC3)cc3c(nc(C4CCC(C(=O)O)CC4)n3[C@@H](C)Cc3ccccc3)c2C1 (stereo partly shown) [Compound 256]	0.01 to 0.1 µM
COC(=O)N1Cc2c(ccc3c2nc(C2CCCCC2)n3Cc2ccccc2)CC1C (stereo not shown) [Compound 328]	0.1 to 1 µM
COC(=O)N1CCc2ccc3c(nc(C4CCCCC4)n3CC[C@@H]3CCCC[C@@H]3C(=O)O)c2C1 [Compound 219]	0.01 to 0.1 µM
COC(=O)N1CCc2ccc3c(nc([C@H]4CC[C@H](C(=O)O)CC4)n3C[C@@H](OC)c3ccccc3)c2C1 [Compound 214]	0.01 to 0.1 µM
COC(=O)N1CCc2ccc3c(nc(C4CCN(C(C)=O)CC4)n3[C@@H](C)Cc3ccccc3)c2C1 [Compound 323]	0.1 to 1 µM
C[C@H](Cc1ccccc1)n1c2ccc3c(c2nc1[C@H]1CC[C@H](C(=O)O)CC1)CN(C(=O)C1CC1)CC3 [Compound 244]	0.01 to 0.1 µM
COC(=O)N1CCc2ccc3c(nc([C@H]4CC[C@H](C(=O)O)CC4)n3[C@H](C)Cc3c(C)cccc3C)c2C1 [Compound 318]	0.1 to 1 µM
COC(=O)N1CCc2ccc3c(nc([C@@H]4CCC[C@@H](C(=O)O)C4)n3CC[C@H]3CC[C@@H](OC)CC3)c2C1 [Compound 215]	0.01 to 0.1 µM
COC(=O)N1CCc2ccc3c(nc(-c4cccc(CC(=O)O)c4)n3[C@H](C)Cc3cc(F)cc(F)c3)c2C1 [Compound 322]	0.1 to 1 µM
COC(=O)N1CCc2ccc3c(nc([C@H]4CC[C@H](S(=O)(=O)NC(C)=O)CC4)n3[C@H](C)Cc3ccccc3)c2C1 [Compound 316]	0.1 to 1 µM
COC(=O)N1CCc2ccc3c(nc([C@H]4CC[C@](C)(C(=O)O)CC4)n3[C@H](C)Cc3ccccc3)c2C1 [Compound 333]	0.1 to 1 µM
COC(=O)N1CCc2ccc3c(nc([C@H]4CC[C@H](C(=O)O)CC4)n3[C@@H](C)Cc3ccccc3F)c2C1 [Compound 314]	0.1 to 1 µM
COC(=O)N1CCc2ccc3c(nc(Cc4cc(O)no4)n3[C@H](C)Cc3ccccc3)c2C1 [Compound 273]	0.01 to 0.1 µM
COC(=O)N1CCc2ccc3c(nc([C@H]4CCC[C@H](C(=O)O)C4)n3Cc3ccc(OC(F)F)cc3)c2C1 [Compound 209]	0.01 to 0.1 µM

Molecule	IC50
COC(=O)N1CCc2ccc3c(nc(N4CCC[C@H](C(=O)O)C4)n3[C@H](C)Cc3ccccc3)c2C1 [Compound 339]	0.1 to 1 µM
COC(=O)N1CCc2ccc3c(nc([C@H]4CC[C@H](C(=O)O)CC4)n3[C@H](C)Cc3ccccc3)c2C1 [Compound 312]	0.1 to 1 µM
COC(=O)N1Cc2c(ccc3c2nc(C2CCCCC2)n3Cc2ccccc2)C[C@H]1C [Compound 282]	0.01 to 0.1 µM
COC(=O)N1CCc2ccc3c(nc([C@H]4CCC[C@H](C(=O)O)C4)n3Cc3cccc(OC)n3)c2C1 [Compound 277]	0.01 to 0.1 µM
COC(=O)N1CCc2ccc3c(nc(N4CCCCC4)n3[C@@H](C)Cc3cccc(-c4nnn[nH]4)c3)c2C1 [Compound 108]	0.001 to 0.01 µM
COC(=O)N1CCc2ccc3c(nc([C@H]4CC[C@H](C(=O)NS(C)(=O)=O)CC4)n3[C@H](C)Cc3ccccc3)c2C1 (single isomer, unassigned) [Compound 290]	0.1 to 1 µM
COC(=O)N1CCc2ccc3c(nc([C@H]4CC[C@H](C(=O)O)CC4)n3[C@H](C)C[C@H]3CCCCO3)c2C1 [Compound 179]	0.01 to 0.1 µM
COC(=O)N1CCc2ccc3c(nc([C@H]4CC[C@H](C(=O)O)CC4)n3[C@@H](C)Cc3ccccc3C)c2C1 [Compound 7]	0.001 to 0.01 µM
(1R,3R)-3-[3-[(2R)-2-(3,4-difluorophenyl)propyl]-8-(methoxycarbonyl)-3H,6H,7H,8H,9H-imidazo[4,5-h]isoquinolin-2-yl]cyclohexane-1-carboxylic acid [Compound 28]	0.001 to 0.01 µM
COC(=O)N1CCc2ccc3c(nc(N4CCN(C(C)=O)CC4)n3[C@@H](C)Cc3ccccc3)c2C1 [Compound 324]	0.1 to 1 µM
COC(=O)N1CCc2c(Cl)cc3c(nc([C@H]4CC[C@H](C(=O)O)CC4)n3[C@H](C)Cc3ccccc3)c2C1 [Compound 305]	0.1 to 1 µM
COC(=O)N1CCc2ccc3c(nc([C@H]4CC[C@H](C(=O)O)CC4)n3[C@@H](C)C[C@H]3CCCOC3)c2C1 [Compound 296]	0.1 to 1 µM
COC(=O)N1CCc2ccc3c(nc([C@H]4CC[C@H](C(=O)O)CC4)n3[C@@H](C)[C@H](O)c3ccccc3)c2C1 [Compound 268]	0.01 to 0.1 µM
COC(=O)N1CCc2ccc3c(nc(C4CCCCC4)n3CC[C@H]3CC[C@@H](C(=O)O)CC3)c2C1 [Compound 87]	0.001 to 0.01 µM
COC(=O)N1CCc2ccc3c(nc([C@H]4CC[C@H](C(=O)O)CC4)n3[C@@H](C)C[C@]3(C)CC[C@@H](OC)CC3)c2C1 [Compound 249]	0.01 to 0.1 µM

Further lines, results first:

IC50	Molecule
0.001 to 0.01 µM	COC(=O)N1CCc2ccc3c(nc([C@H]4CC[C@H](C(=O)O)CC4)n3Cc3ccc(OC(F)F)cc3)c2C1 [Compound 171]
0.001 to 0.01 µM	COC(=O)N1CCc2ccc3c(nc(-c4ccc(CC(=O)O)cc4)n3[C@@H](C)Cn3cc(Cl)cn3)c2C1 [Compound 122]
0.001 to 0.01 µM	COC(=O)N1CCc2ccc3c(nc([C@H]4CC[C@H](C(=O)O)CC4)n3[C@@H](C)Cc3ccc(C)c(F)c3)c2C1 (single isomer, unassigned) [Compound 2]
0.001 to 0.01 µM	COC(=O)N1CCc2ccc3c(nc([C@H]4CC[C@H](C(=O)O)CC4)n3CC(F)(F)c3ccccc3)c2C1 [compound 145]
0.001 to 0.01 µM	COC(=O)N1CCc2ccc3c(nc(C4CCCCC4)n3[C@@H](CO)Cc3cccc(C(=O)O)c3)c2C1 [Compound 152]
0.001 to 0.01 µM	COC(=O)N1CCc2c([C@@H]3CCOC3)cc3c(nc([C@H]4CC[C@H](C(=O)O)CC4)n3[C@@H](C)Cc3ccccc3)c2C1 [Compound 50]
0.001 to 0.01 µM	COC(=O)N1CCc2ccc3c(nc(-c4ccc(CC(=O)O)cc4)n3[C@@H](C)Cc3ccccc3)c2C1 [Compound 78]
0.001 to 0.01 µM	COC(=O)N1CCc2ccc3c(nc([C@H]4CC[C@H](C(=O)O)CC4)n3[C@H](C)C[C@H]3CC[C@@H](OC)CC3)c2C1 [Compound 68]
0.001 to 0.01 µM	COC(=O)N1CCc2ccc3c(nc([C@H]4CCCOC4)n3C[C@H](C(=O)O)c3ccc(C)cc3)c2C1 [Compound 53]
0.001 to 0.01 µM	COC(=O)N1CCc2ccc3c(nc(C4CCN(S(N)(=O)=O)CC4)n3[C@@H](C)Cc3ccccc3)c2C1 [Compound 107]
0.001 to 0.01 µM	COC(=O)N1CCc2ccc3c(nc([C@H]4CC[C@H](C(=O)O)CC4)n3[C@@H](C)C[C@H]3CCCCO3)c2C1 [Compound 147]
0.001 to 0.01 µM	COC(=O)N1CCc2ccc3c(nc([C@H]4CC[C@H](C(=O)O)CC4)n3CCc3ccc(OC(F)F)cc3)c2C1 [Compound 155]
0.001 to 0.01 µM	COC(=O)N1CCc2ccc3c(nc(C4CCCCC4)n3C[C@@H](CC(=O)O)c3cc(F)cc(OC)c3)c2C1 [Compound 35]
0.001 to 0.01 µM	COC(=O)N1CCc2ccc3c(nc([C@H]4CCC[C@H](C(=O)O)C4)n3[C@@H](C)Cc3ccccc3C)c2C1 (single isomer, unassigned) [Compound 18]
0.001 to 0.01 µM	COC(=O)N1CCc2ccc3c(nc(N4CCC[C@H](C(=O)O)C4)n3[C@@H](C)Cc3ccccc3)c2C1 [Compound 161]
